Where “and” joins values, the source holds several entries; their conditions need not be identical. Equal entries are not always repeated. Where two headings read alike, the source gives them in different places.
Key:
Type in all cases: biochemical
[1] = target: Mushroom tyrosinase (EC.1.14.18.1) (Agaricus bisporus, UniProt C7FF04); test: Tyrosinase inhibition assay (L-tyrosine substrate); details: for inhibition at 10 µg/mL: conc 10 ug/ml
Description: In brief, the assay was carried out in 0.05 mol L^−1 phosphate buffer pH 6.8. Mushroom tyrosinase (EC.1.14.18.1) was dissolved in the buffer to a concentration of 100 units mL^−1. L-tyrosine, an enzyme substrate, was prepared to a concentration of 0.25 mg mL^−1 in the buffer. […] Into a well of 96-well plates, 10 µl sample and 40 µl L-tyrosine solution were mixed and incubated for 10 min at room temperature. After that 50 µl enzyme solution was inoculated and mixed thoroughly. The reaction was stopped afterward by incubation on ice for 1 min. […] The percentage inhibition (%) was calculated by the equation as follows:
%Inhibition={1–(Asam,10–Asam,0)÷(Acont,10–Acont,0)}×100.

[2] = target: porcine pancreatic elastase (EC.3.4.21.36) (Sus scrofa, UniProt P00772); test: Elastase inhibition assay (SANA substrate)
Chain of porcine pancreatic elastase (EC.3.4.21.36) (P00772 27-266): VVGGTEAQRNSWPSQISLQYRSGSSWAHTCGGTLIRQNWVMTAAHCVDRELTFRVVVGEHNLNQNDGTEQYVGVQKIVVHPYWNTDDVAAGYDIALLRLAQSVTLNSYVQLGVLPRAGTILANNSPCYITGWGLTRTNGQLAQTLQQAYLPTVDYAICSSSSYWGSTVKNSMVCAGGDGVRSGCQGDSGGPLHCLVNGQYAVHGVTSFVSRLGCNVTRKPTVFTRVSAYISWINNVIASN
Description: The assay according to [Abhijit & Manjushree (2010)] was applied with some modifications. Briefly, the buffer system was 0.2 mM Tris-HCl buffer (pH 8.0). A solution of 1 µg mL^−1 porcine pancreatic elastase (EC.3.4.21.36) was prepared in sterile water. The enzyme substrate, N-Succinyl-Ala-Ala-Ala-p-nitroanilide (SANA), was dissolved in the buffer to a concentration of 80 mmol L^−1. A sample dissolved in DMSO was diluted to various concentrations by using the buffer. A 100-µl sample solution was mixed with 50 µl enzyme solution and incubated for 15 min. After that 50 µl of the enzyme substrate solution was added and thoroughly mixed. The OD410 was measured immediately (0 min) and after incubation overnight (o/n) at 37 °C by using a microplate reader. Ursolic acid was used as a positive control (Fig. 1), and water was used as a negative control. The percentage inhibition (%) was calculated by the following equation:
%Inhibition={1–[(Asam,o/n–Asam,0)÷(Acont,o/n–Acont,0)]}×100.

[3] = tested on: Collagenase from Clostridium histolyticum (EC.3.4.24.3); test: Collagenase inhibition assay (fluorogenic peptide substrate)
Description: The recent anti-collagenase assay was modified from that previously described by [Widyowati et al. (2016)]. In brief, 50 mmol L^−1 tricine buffer pH 7.5 supplemented with 400 mmol L^−1 NaCl and 10 mmol L^−1 CaCl2 was used as the buffering diluent. Collagenase from Clostridium histolyticum (EC.3.4.24.3) was dissolved in the buffer to a concentration of 1 mg L^−1. The enzyme substrate, MOCAc-PRO-Leu-Gly-Leu-A2pr (Dnp)-Ala-Arg-NH2, was prior dissolved in DMSO and subsequently diluted in the buffer to a concentration of 1 mmol L^−1. A sample dissolved in DMSO was diluted to different concentrations by using the buffer. A 2-µl sample solution was incubated with 100 µl enzyme solution at 37 °C for 10 min. Then, a 50-µl substrate was added and thoroughly mixed. Fluorescence emission (F) at 405 nm was immediately recorded and continually monitored for 30 min using a wavelength of 320 nm for excitation. Caffeic acid was used as a position control (Fig. 1). Negative control was performed with water. The percent inhibition (%) was calculated from the equation below:
%Inhibition={1–(Fsam,30–Fsam,0)÷(Fcont,30–Fcont,0)}×100.

[4] = individual replicates, read-out: % inhibition tyrosinase, replicates 1-3
[5] = read-out: % inhibition tyrosinase, ave
[6] = individual replicates, read-out: % inhibition elastase, replicates 1-3
[7] = read-out: % inhibition elastase, ave
[8] = individual replicates, read-out: ic50 elastase, N1-N3 (converted)
[9] = mean ± SEM, triplicate, read-out: IC50 elastase inhibition
[10] = individual replicates, read-out: ic50 collagenase, N1-N3
[11] = mean ± SEM, triplicate, read-out: IC50 collagenase inhibition

Chain of Mushroom tyrosinase (EC.1.14.18.1) (C7FF04 2-392): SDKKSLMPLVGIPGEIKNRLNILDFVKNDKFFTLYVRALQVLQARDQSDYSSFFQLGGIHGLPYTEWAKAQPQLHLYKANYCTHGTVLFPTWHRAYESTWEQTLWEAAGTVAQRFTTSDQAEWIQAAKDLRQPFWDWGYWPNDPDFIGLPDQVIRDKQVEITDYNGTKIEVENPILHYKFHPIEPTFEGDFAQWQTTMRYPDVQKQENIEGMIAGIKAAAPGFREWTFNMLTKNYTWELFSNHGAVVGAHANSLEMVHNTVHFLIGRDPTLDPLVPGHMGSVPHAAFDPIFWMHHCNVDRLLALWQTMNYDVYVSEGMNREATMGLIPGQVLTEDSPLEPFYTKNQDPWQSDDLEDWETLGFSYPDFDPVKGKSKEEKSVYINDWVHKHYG

## Oc1cc(O)cc(CCCCCCCC=CCCCCCCCc2cc(O)cc(O)c2)c1 [Bisresorcinol, (8′Z)-3,5-dihydroxy-1-[16′-(3″,5″-dihydroxyphenyl)-8′-hexadecen-1′-yl]benzene]
[1]; [4]
  inhibition at 10 µM: 52.4%
  inhibition at 28 µM: 81.8%
  inhibition at 34 µM: 86.3%
[1]; [5]
  inhibition at 10 µM: 44.4%
  inhibition at 28 µM: 78.5%
  inhibition at 34 µM: 84.3%
  inhibition at 10 µg/mL: 44.4%
[1]; 30 uM, individual replicates, read-out: % inhibition tyrosinase, replicates 1-3
  inhibition at 30 µM: 81.8%
[1]; 30 uM, read-out: % inhibition tyrosinase, ave
  inhibition at 30 µM: 78.5%
[1]; 40 uM, individual replicates, read-out: % inhibition tyrosinase, replicates 1-3
  inhibition at 40 µM: 119%
[1]; 40 uM, read-out: % inhibition tyrosinase, ave
  inhibition at 40 µM: 100%
[1]; 50 uM, individual replicates, read-out: % inhibition tyrosinase, replicates 1-3
  inhibition at 50 µM: 138%
[1]; 50 uM, read-out: % inhibition tyrosinase, ave
  inhibition at 50 µM: 100%
[1]; at 50 µmol L^−1, read-out: tyrosinase inhibition
  inhibition at 50 µM: 100%
[1]; individual replicates, read-out: % inhibition tyrosinase, N1-N3
  inhibition at 10 µg/mL: 52.4%
[1]; conc 12.5 ug/ml, individual replicates, read-out: % inhibition tyrosinase, N1-N3
  inhibition at 12.5 µg/mL: 81.8%
[1]; conc 12.5 ug/ml, read-out: % inhibition tyrosinase, ave
  inhibition at 12.5 µg/mL: 78.5%
[1]; conc 15 ug/ml, individual replicates, read-out: % inhibition tyrosinase, N1-N3
  inhibition at 15 µg/mL: 86.3%
[1]; conc 15 ug/ml, read-out: % inhibition tyrosinase, ave
  inhibition at 15 µg/mL: 84.2%
[2]; 23 uM, read-out: % inhibition elastase, ave
  inhibition at 23 µM: 20.8%
[2]; [6]
  inhibition at 34 µM: 46.5%
  inhibition at 45 µM: 99.6%
[2]; [7]
  inhibition at 34 µM: 34.7%
  inhibition at 45 µM: 99.7%
[2]; at 50 µmol L^−1, read-out: maximum inhibition of elastase
  inhibition at 50 µM: 100%
[2]; average of N1-N3, read-out: ic50 elastase, ave (converted)
  IC50: 33.4 µM
[2]; conc 10 ug/ml, individual replicates
  % inhibition elastase, N1-N3: 30.14% and 20.28% and 11.87%
[2]; conc 10 ug/ml, read-out: % inhibition elastase, ave
  inhibition at 10 µg/mL: 20.8%
[2]; conc 15 ug/ml, individual replicates
  % inhibition elastase, N1-N3: 30.89% and 26.77%
[2]; conc 15 ug/ml, individual replicates, read-out: % inhibition elastase, N1-N3
  inhibition at 15 µg/mL: 46.5%
[2]; conc 15 ug/ml, read-out: % inhibition elastase, ave
  inhibition at 15 µg/mL: 34.7%
[2]; conc 20 ug/ml, individual replicates
  % inhibition elastase, N1-N3: 99.58% and 99.76%
[2]; conc 20 ug/ml, individual replicates, read-out: % inhibition elastase, N1-N3
  inhibition at 20 µg/mL: 99.6%
[2]; conc 20 ug/ml, read-out: % inhibition elastase, ave
  inhibition at 20 µg/mL: 99.7%
[2]; [8]
  IC50: 35 µM and 31.2 µM and 34 µM and 34.8 µM and 31 µM and 33.8 µM
[2]; [9]
  IC50: 33.2 ± 1.1 µM
[3]; 56 uM
  % inhibition collagenase, ave: 0.0%
[3]; 113 uM
  % inhibition collagenase, ave: 33.0%
[3]; 226 uM
  % inhibition collagenase, ave: 81.31% and 81.3%
[3]; average of N1-N3
  ic50 collagenase, ave: 69.5 µg/mL
[3]; conc 25 ug/ml
  % inhibition collagenase, ave: 0.00%
[3]; conc 25 ug/ml, individual replicates
  % inhibition collagenase, N1-N3: 0.00% and 0% (2×)
[3]; conc 50 ug/ml
  % inhibition collagenase, ave: 32.97%
[3]; conc 50 ug/ml, individual replicates
  % inhibition collagenase, N1-N3: 38.51% and 27.91% and 32.48%
[3]; conc 100 ug/ml
  % inhibition collagenase, ave: 81.31%
[3]; conc 100 ug/ml, individual replicates
  % inhibition collagenase, N1-N3: 82.28% and 81.54% and 80.12%
[3]; individual replicates
  ic50 collagenase, N1-N3: 70.18 µg/mL and 67.47 µg/mL and 70.79 µg/mL
[3]; [10]
  IC50: 158 µM and 152 µM and 160 µM
[3]; [11]
  IC50: 157 ± 2.3 µM

## O=C(O)/C=C/c1ccc(O)c(O)c1 [Caffeic acid, caffeic acid, reference compound]
[3]; 140 uM
  % inhibition collagenase, ave: 30.4%
[3]; 280 uM
  % inhibition collagenase, ave: 51.1%
[3]; 560 uM
  % inhibition collagenase, ave: 72.8%
[3]; conc 280 uM (14 mM is the stock sample solution)
  % inhibition collagenase, ave: 30.37%
[3]; conc 14 mM, individual replicates
  % inhibition collagenase, N1-N3: 37.46% and 22.54% and 31.12%
[3]; conc 28 mM
  % inhibition collagenase, ave: 51.14%
[3]; conc 28 mM, individual replicates
  % inhibition collagenase, N1-N3: 50.5% and 50.77% and 52.14%
[3]; conc 56 mM
  % inhibition collagenase, ave: 72.77%
[3]; conc 56 mM, individual replicates
  % inhibition collagenase, N1-N3: 71.84% and 74.23% and 72.24%
[3]; [10]
  IC50: 307 µM and 286 µM and 334 µM
[3]; [11]
  IC50: 309 ± 13.7 µM

## C[C@H]1[C@H](C)CC[C@]2(C(=O)O)CC[C@]3(C)C(=CC[C@@H]4[C@@]5(C)CC[C@H](O)C(C)(C)[C@@H]5CC[C@]43C)[C@H]12 [Ursolic acid, ursolic acid, reference compound]
[2]; 10 uM, individual replicates
  % inhibition elastase, replicates 1-3: 25.34% and 30.65%
[2]; 10 uM, individual replicates, read-out: % inhibition elastase, replicates 1-3
  inhibition at 10 µM: 26.2%
[2]; 10 uM, read-out: % inhibition elastase, ave
  inhibition at 10 µM: 27.4%
[2]; 30 uM, individual replicates
  % inhibition elastase, replicates 1-3: 46.86% and 46.62%
[2]; 30 uM, individual replicates, read-out: % inhibition elastase, replicates 1-3
  inhibition at 30 µM: 48.1%
[2]; 30 uM, read-out: % inhibition elastase, ave
  inhibition at 30 µM: 47.2%
[2]; 35 uM, individual replicates
  % inhibition elastase, replicates 1-3: 50.36% and 49.93%
[2]; 35 uM, individual replicates, read-out: % inhibition elastase, replicates 1-3
  inhibition at 35 µM: 51.1%
[2]; 35 uM, read-out: % inhibition elastase, ave
  inhibition at 35 µM: 50.5%
[2]; 40 uM, individual replicates
  % inhibition elastase, replicates 1-3: 53.85% and 54.07%
[2]; 40 uM, individual replicates, read-out: % inhibition elastase, replicates 1-3
  inhibition at 40 µM: 53.2%
[2]; 40 uM, read-out: % inhibition elastase, ave
  inhibition at 40 µM: 53.7%
[2]; 50 uM
  % inhibition elastase, ave: 72.36%
[2]; 50 uM, individual replicates
  % inhibition elastase, replicates 1-3: 74.42% and 69.89%
[2]; 50 uM, individual replicates, read-out: % inhibition elastase, replicates 1-3
  inhibition at 50 µM: 72.8%
[2]; 50 uM, read-out: % inhibition elastase, ave
  inhibition at 50 µM: 72.4%
[2]; 100 uM
  % inhibition elastase, ave: 87.51%
[2]; 100 uM, individual replicates
  % inhibition elastase, replicates 1-3: 89.73% and 85.61%
[2]; 100 uM, individual replicates, read-out: % inhibition elastase, replicates 1-3
  inhibition at 100 µM: 87.2%
[2]; 100 uM, read-out: % inhibition elastase, ave
  inhibition at 100 µM: 87.5%
[2]; at 100 µmol L^−1, read-out: elastase inhibition
  inhibition at 100 µM: 80%
[2]; [8]
  IC50: 33.2 µM and 35.1 µM and 34.5 µM
[2]; [9]
  IC50: 34.3 ± 0.6 µM

## OC[C@H]1O[C@@H](Oc2ccc(O)cc2)[C@H](O)[C@@H](O)[C@@H]1O [β-Arbutin, β-arbutin, reference compound]
[1]; read-out: % inhibition tyrosinase, N1-N3, conc 12.5 ug/ml, individual replicates
  inhibition at 12.5 µg/mL: 31.2%
[1]; read-out: % inhibition tyrosinase, N1-N3, conc 15 ug/ml, individual replicates
  inhibition at 15 µg/mL: 36.9%
[1]; read-out: % inhibition tyrosinase, N1-N3, conc 25 ug/ml, individual replicates
  inhibition at 25 µg/mL: 59.7%
[1]; read-out: % inhibition tyrosinase, ave, 30 uM
  inhibition at 30 µM: 18.4%
[1]; read-out: % inhibition tyrosinase, ave, 40 uM
  inhibition at 40 µM: 24.9%
[1]; read-out: % inhibition tyrosinase, ave, 46 uM
  inhibition at 46 µM: 28.8%
[1]; read-out: % inhibition tyrosinase, ave, 50 uM
  inhibition at 50 µM: 34.4%
[1]; read-out: % inhibition tyrosinase, ave, 92 uM
  inhibition at 92 µM: 58.8%
[1]; read-out: % inhibition tyrosinase, ave, conc 12.5 ug/ml
  inhibition at 12.5 µg/mL: 28.8%
[1]; read-out: % inhibition tyrosinase, ave, conc 15 ug/ml
  inhibition at 15 µg/mL: 34.8%
[1]; read-out: % inhibition tyrosinase, ave, conc 25 ug/ml
  inhibition at 25 µg/mL: 58.8%
[1]; read-out: % inhibition tyrosinase, replicates 1-3, 30 uM, individual replicates
  inhibition at 30 µM: 18.7%
[1]; read-out: % inhibition tyrosinase, replicates 1-3, 40 uM, individual replicates
  inhibition at 40 µM: 25.7%
[1]; read-out: % inhibition tyrosinase, replicates 1-3, 46 uM, individual replicates
  inhibition at 46 µM: 31.2%
[1]; read-out: % inhibition tyrosinase, replicates 1-3, 50 uM, individual replicates
  inhibition at 50 µM: 30.5%
[1]; read-out: % inhibition tyrosinase, replicates 1-3, 92 uM, individual replicates
  inhibition at 92 µM: 59.7%
